Assay results taken from patent US11752120B2, “Use of succinic acid in increasing sensitivity of bacteria to antibiotics” (SUN YAT-SEN UNIVERSITY, priority 2018, dated 2023).

What was measured:
E. coli K12 = assay: Minimum inhibitory concentration (MIC), NCCLS method, control strain; type: cell-based, Escherichia coli; settings: no unit in table, MIC in μg/mL
Source text: (§1) Escherichia coli (E. coli) are one of the most common bacteria in the clinic. 30 strains of E. coli obtained from the clinic were named YT1-30. The minimum inhibitory concentrations (MIC) of 8 antibiotics against these 30 clinically obtained E. coli was detected according to the NCCLS method, and E. coli K12 was used as a control.

[1] = tested on: clinical Escherichia coli YT16 and YT28; assay: Viable bacteria count / survival rate after antibiotic with or without succinic acid in M9 medium; type: cell-based
Experimental: A single colony of clinical bacteria was picked from a solid LB plate and was inoculated in 5 mL LB liquid medium for culture at 37° C. and 200 rpm for 16 hours, and then was inoculated in 100 mL LB liquid medium at a ratio of 1:100 (v/v) and was cultured at 37° C. until OD600 value was 1.0. 20 mL of bacterial solution was collected and centrifuged at 8000 rpm for 5 minutes, the supernatant was cleared and bacterial cells were washed with an equal volume of 0.85% normal saline, and finally the bacterial cells were suspended with 1×M9 basic medium (containing 10 mM acetate), the OD value of the bacterial solution was adjusted to 0.5, and then 5 mL of the bacterial solution was aliquoted in a test tube for the following experimental studies.
The survival rates of the clinical bacteria in medium with adding succinic acid and without adding succinic acid at the same antibiotic concentration were compared.
The formula is the number of viable bacteria when different concentrations of succinic acid were added/the number of viable bacteria without adding succinic acid×100%.
In order to study whether clinical Escherichia coli has effect on penicillin antibiotics after adding succinic acid, two clinical Escherichia coli samples of YT16 and YT28 were prepared according to step 2 in Embodiment 1, 20 mM succinic acid and 3 kinds of penicillin were added respectively, […], the number of viable bacteria was counted, and the survival rate was calculated. […]

[2] = tested on: clinical Escherichia coli YT1-30; assay: Minimum inhibitory concentration (MIC), NCCLS method, 30 clinical strains; type: cell-based; set-up: Minimum inhibitory concentration (MIC): unit not given here
Source text: as §1

[3] = tested on: clinical Escherichia coli biofilm; assay: In vitro bactericidal assay of biofilm; type: cell-based; settings: catheter biofilm, 6 hours; succinic acid 580 mg/kg; ampicillin 2000 mg/kg for YT16, 500 mg/kg for YT28
Experimental: […] of clinical Escherichia coli (YT3, YT11, YT12, YT16, YT17, YT21, YT22, YT23, YT28, YT33) were picked, monocloned into LB medium, and cultured overnight, then were transferred into 2 mL fresh LB medium at 1:200, and added with a 6 mm PE-50 biological catheter that was sterilized by UV, and cultured in a 37° C. incubator for culture for 24 hours. The bacterial solution was replaced with 1 mL of LB medium daily, and the catheter was continuously cultured for 3 days. The prepared biofilm was washed 5 times with 1 mL of sterile normal saline, and then placed in a 1.5 mL EP tube.
The assay was divided into 4 groups: normal saline control group, succinic acid group, ampicillin group, ampicillin+succinic acid group, and the catheters were treated in a shaker at 37° C. and 200 rpm. A dosage of succinic acid was 580 mg/kg, and a dosage of ampicillin was 2000 mg/kg for YT16, and 500 mg/kg for YT28. After 6 hours, ultrasonic cleaning was conducted for 15 minutes, the biofilm on the catheter was eluted and thoroughly mixed, and after gradient dilution, spot plate counting was performed. The formula for calculating the bacterial survival rate is: number of viable bacteria in each group/number of viable bacteria in the control group×100%.

CC1(C)S[C@@H]2[C@H](NC(=O)[C@H](N)c3ccccc3)C(=O)N2[C@H]1C(=O)O [Ampicillin]
Minimum inhibitory concentration (MIC) (E. coli K12): 6.1
survival rate ([1]; YT16, 2.5 mg/mL ampicillin without adding succinic acid, 4 hours): 61.04%
survival rate ([1]; YT16, 5 mg/mL ampicillin without adding succinic acid, 4 hours): 34.53%
survival rate ([1]; YT16, 10 mg/mL ampicillin without adding succinic acid, 4 hours (FIG. 1)): 25.99%
survival rate ([1]; YT16, 10 mg/mL ampicillin without adding succinic acid, 4 hours (FIG. 3)): 73.8%
survival rate ([1]; YT16, 20 mg/mL ampicillin without adding succinic acid, 4 hours): 12.47%
survival rate ([1]; YT16, only 10 mg/mL ampicillin added, 1 hour (FIG. 2)): 93.89%
survival rate ([1]; YT16, only 10 mg/mL ampicillin added, 4 hours (FIG. 2)): 47.34%
survival rate ([1]; YT16, only 10 mg/mL ampicillin added, 7 hours (FIG. 2)): 18.45%
survival rate ([1]; YT28, 2.5 mg/mL ampicillin without adding succinic acid, 4 hours): 68.38%
survival rate ([1]; YT28, 5 mg/mL ampicillin without adding succinic acid, 4 hours): 56.25%
survival rate ([1]; YT28, 10 mg/mL ampicillin without adding succinic acid, 4 hours (FIG. 1)): 35.87%
survival rate ([1]; YT28, 10 mg/mL ampicillin without adding succinic acid, 4 hours (FIG. 3)): 86.21%
survival rate ([1]; YT28, 20 mg/mL ampicillin without adding succinic acid, 4 hours): 27.09%
survival rate ([1]; YT28, only 10 mg/mL ampicillin added, 1 hour (FIG. 2)): 96.79%
survival rate ([1]; YT28, only 10 mg/mL ampicillin added, 4 hours (FIG. 2)): 26.79%
survival rate ([1]; YT28, only 10 mg/mL ampicillin added, 7 hours (FIG. 2)): 14.18%
Minimum inhibitory concentration (MIC) ([2]; strain YT1): 25000
Minimum inhibitory concentration (MIC) ([2]; strain YT2): 6250
Minimum inhibitory concentration (MIC) ([2]; strain YT3): 390.625
Minimum inhibitory concentration (MIC) ([2]; strain YT4): 6250
Minimum inhibitory concentration (MIC) ([2]; strain YT5): 25000
Minimum inhibitory concentration (MIC) ([2]; strain YT6): 1562.5
Minimum inhibitory concentration (MIC) ([2]; strain YT7): 1562.5
Minimum inhibitory concentration (MIC) ([2]; strain YT8): 1562.5
Minimum inhibitory concentration (MIC) ([2]; strain YT9): 1562.5
Minimum inhibitory concentration (MIC) ([2]; strain YT10): 6250
Minimum inhibitory concentration (MIC) ([2]; strain YT11): 1562.5
Minimum inhibitory concentration (MIC) ([2]; strain YT12): 6250
Minimum inhibitory concentration (MIC) ([2]; strain YT13): 6250
Minimum inhibitory concentration (MIC) ([2]; strain YT14): 6250
Minimum inhibitory concentration (MIC) ([2]; strain YT15): 6250
Minimum inhibitory concentration (MIC) ([2]; strain YT16): 6250
Minimum inhibitory concentration (MIC) ([2]; strain YT17): 6250
Minimum inhibitory concentration (MIC) ([2]; strain YT18): 6250
Minimum inhibitory concentration (MIC) ([2]; strain YT19): 1562.5
Minimum inhibitory concentration (MIC) ([2]; strain YT20): 1562.5
Minimum inhibitory concentration (MIC) ([2]; strain YT21): 1562.5
Minimum inhibitory concentration (MIC) ([2]; strain YT22): 6250
Minimum inhibitory concentration (MIC) ([2]; strain YT23): 1562.5
Minimum inhibitory concentration (MIC) ([2]; strain YT24): 6250
Minimum inhibitory concentration (MIC) ([2]; strain YT25): 6250
Minimum inhibitory concentration (MIC) ([2]; strain YT26): 6250
Minimum inhibitory concentration (MIC) ([2]; strain YT27): 6250
Minimum inhibitory concentration (MIC) ([2]; strain YT28): 1562.5
Minimum inhibitory concentration (MIC) ([2]; strain YT29): 6250
Minimum inhibitory concentration (MIC) ([2]; strain YT30): 25000
clearance of clinical Escherichia coli on the biofilms, used alone [3]: cannot clear
